# According to patent publication US11299460B2, “MDM2 inhibitor, preparation method therefor, pharmaceutical composition thereof and use thereof” (SHANGHAI LONGWOOD BIOPHARMACEUTICALS CO., LTD., priority 2018, dated 2022):
# How the values were obtained:
# [1] = tested on: p21 transcripts in SJSA-1 cells; test: p21 assay (QRT-PCR of p21 transcripts in SJSA-1 cells); format: cell-based, human; settings: cell assay (SJSA-1 cell), p21 induction, 7 hours incubation
# From the text: Inhibition of the interaction between hMDM2 and p53 results in the activation of the p53 pathway via the stabilization and accumulation of p53. P53 activates the transcription of many genes, one of which is p21<WAFT/CIP1>. To evaluate the potency of hMDM2 inhibitors, quantitative reverse transcription polymerase chain reaction (QRT PCR) was used to measure the level of p21 transcripts of compound related cells relative to that of control cells treated with dimethyl sulfoxide (DMSO).
# In the first day, SJSA-1 cells were inoculated into 100 μL growth medium (RPMI1640; 10 mM HEPES; 1 mM sodium pyruvate; 1× penicillin streptomycin glutamine (PSQ) and 10% FBS, all reagents were obtained from Invitrogen) at a density of 3×10^4 cells in 96-well cell culture plate. The cells were cultured overnight at 37° C. and 5% CO2 atmosphere.
# In the second day, hMDM2 inhibitor was gradient diluted in DMSO(Sigma-Aldrich; St. Louis, Mo.). 5 μl of each compound dilution were added into 245 μl filtered assay medium (RPMI1640, 10% FBS, 10 mM HEPES, 1 mM sodium pyruvate and 1×PSQ). Or the assay was conducted with the presence of 10% human serum or 10% mouse serum, or without serum. Growth medium was removed from inoculated SJSA-1 cell culture plate and replaced by 100 μL assay medium for each well. Then 100 μL culture medium containing diluted inhibitor was added into each well to a final volume 200 μL. The final concentration of the compound was in the range of 0.049 μm-50 μm by dose titration with DMSO as control. The cells were incubated at 37° C. and 5% CO2 for 7 hours with the presence of inhibitor. When incubation was completed, growth medium was removed from cells and the plate was stored at −80° C.
# In the third day, giagen BioRobot Universal workstation was used to purify total RNA from SJSA-1 cells treated with inhibitor and DMSO respectively. The purification procedure herein was according to RNeasy96BioRobot8000 test kit provided by Qiagen, Valencia, Calif.
# To measure the level of existing p21 transcripts, QRT-PCR was introduced. The levels of p21, housekeeping genes and glyceraldehyde 3-phosphate dehydrogenase (GAPDH) were determined by the total RNA from each inhibitor- or DMSO-treated well by duplicated test. The QRT-PCR reaction was performed on the Applied Biosystems prism 7900ht instrument using the relative quantitative (ΔΔ Ct) method according to the following cycle conditions: 48° C. for 30 minutes, then 95° C. for 10 minutes, and then was 40 cycles consisting of 95° C. for 15 seconds and 60° C. for 1 minute. The data were analyzed by using Applied Biosystems SDS2.2 software, with GAPDH as inner control and DMSO treated samples as calibrators. SDS2.2 software calculated the relative quantification (RQ) or increased fold of p21 level relative to DMSO control for each treated sample. The maximum (100%) p21 induction fold was defined by the maximum value of the fitting curve of the reference compound. The p21 induction fold of each inhibitor dose tested was converted to a value representing the percentage of the maximum value. XLFit software (ID business solutions, Alameda, Calif.) was used to make dose-response curve to calculate the IC50 transit value of each inhibitor tested.
# GST-hMDM2 (aa1-188) = target: T1, GST-hMDM2 (aa1-188) (Homo sapiens, UniProt Q00987); test: Homogeneous time resolved fluorometry (HTRF assay), hMDM2/p53 interaction; format: binding; settings: HTRF analysis; GST-hMDM2 (aa1-188) / biotinylated-p53 (aa1-83)
# T1 construct: The amino acid residues 1-188 of human MDM2 were expressed as GST-hMDM2 fusion protein; made in house; host or cells: E. coli
# Experimental: Residues 1-83 of human p53 were expressed as avitag <TM>-trxa-6×his fusion protein (biotinlabelled p53) in E. coli. Each protein was separated from cell homogenate by affinity chromatography.
# Specifically, 10 μL GST-hMDM2 was incubated with 10 uL diluted compound in 10% DMSO for 20 minutes at room temperature. 20 μL biotinlabelled-p53 was added to the mixture of GST-hMDM2 and then incubated at room temperature for 60 min. A 10 μL detection buffer consisting of SA-XLent, anti-GST cavernous compound antibody and KF was added to the reaction solution consisting of GST-hMDM2, biotinlabelled-p53 and the compound and was placed at room temperature to achieve equilibrium and maintained for more than 4 h. The final concentration of DMSO in the reaction solution was 2%. Time resolved fluorescence were measured on a microplate multi label reader. The inhibition percentage was calculated relative to nutlin-3.
# T1 sequence (Q00987 1-188): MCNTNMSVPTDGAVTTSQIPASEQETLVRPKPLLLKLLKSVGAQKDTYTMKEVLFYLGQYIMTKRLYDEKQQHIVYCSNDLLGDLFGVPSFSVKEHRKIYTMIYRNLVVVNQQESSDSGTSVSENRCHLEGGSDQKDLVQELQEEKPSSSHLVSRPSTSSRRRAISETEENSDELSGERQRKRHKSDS
"IC50 ([1]; Homo sapiens, SJSA-1, 7 h)",IC50 (GST-hMDM2 (aa1-188)),IC50 [1],Structure (SMILES)
1000 to 10000 nM,10 to 100 nM,–,CC(C)[C@@H](CS(=N)(=O)C(C)C)N1C(=O)[C@@](C)(CC(=O)NS(C)(=O)=O)C[C@H](c2cccc(Cl)c2)[C@H]1c1ccc(Cl)cc1 (some centres unmarked) [Compound 018]
< 1000 nM,< 10 nM,–,COc1cc(C(=O)O)ccc1NC(=O)C[C@@]1(C)C[C@H](c2cccc(Cl)c2)[C@@H](c2ccc(Cl)cc2)N([C@H](C[S@](=O)(=NC(C)=O)C(C)C)C(C)C)C1=O [Compound 053]
1000 to 10000 nM,< 10 nM,–,CC(C)[C@@H](CS(=N)(=O)C(C)C)N1C(=O)[C@@](C)(CC(=O)Nc2ccc(C(=O)O)cc2)C[C@H](c2cccc(Cl)c2)[C@H]1c1ccc(Cl)cc1 (some centres unmarked) [Compound 007]
–,10 to 100 nM,1000 to 10000 nM,CC(C)[C@@H](CS(=O)(=O)C(C)C)N1C(=O)[C@@](C)(CC(=O)NS(=N)(=O)C2(C)CC2)C[C@H](c2cccc(Cl)c2)[C@H]1c1ccc(Cl)cc1 (some centres unmarked) [Compound 028B]
1000 to 10000 nM,> 100 nM,–,Cc1c(Br)cccc1NC(=O)C[C@@]1(C)C[C@H](c2cccc(Cl)c2)[C@@H](c2ccc(Cl)cc2)N([C@H](CS(=N)(=O)C(C)C)C(C)C)C1=O (some centres unmarked) [Compound 013]
1000 to 10000 nM,10 to 100 nM,–,CC(C)[C@@H](CS(=N)(=O)C(C)C)N1C(=O)[C@@](C)(CC(=O)NS(=O)(=O)c2ccccc2)C[C@H](c2cccc(Cl)c2)[C@H]1c1ccc(Cl)cc1 (some centres unmarked) [Compound 020]
1000 to 10000 nM,10 to 100 nM,–,Cc1ccc(S(=O)(=O)NC(=O)C[C@@]2(C)C[C@H](c3cccc(Cl)c3)[C@@H](c3ccc(Cl)cc3)N([C@H](CS(=N)(=O)C(C)C)C(C)C)C2=O)cc1 (some centres unmarked) [Compound 021]
< 1000 nM,< 10 nM,–,CCOC(=O)N=S(=O)(C[C@H](C(C)C)N1C(=O)[C@@](C)(CC(=O)Nc2ccc(C(=O)O)c(OC)c2)C[C@H](c2cccc(Cl)c2)[C@H]1c1ccc(Cl)cc1)C(C)C (some centres unmarked) [Compound 052]
–,< 10 nM,< 1000 nM,CC(C)[C@@H](CS(=N)(=O)C(C)C)N1C(=O)[C@@](C)(CC(=O)O)C[C@H](c2cccc(Cl)c2)[C@H]1c1ccc(Cl)cc1 (some centres unmarked) [Compound 002]
< 1000 nM,< 10 nM,–,CCOC(=O)N=S(=O)(C[C@H](C(C)C)N1C(=O)[C@@](C)(CC(=O)O)C[C@H](c2cccc(Cl)c2)[C@H]1c1ccc(Cl)cc1)C(C)C (some centres unmarked) [Compound 048]
< 1000 nM,< 10 nM,–,CCN=S(=O)(C[C@H](C(C)C)N1C(=O)[C@@](C)(CC(=O)O)C[C@H](c2cccc(Cl)c2)[C@H]1c1ccc(Cl)cc1)C(C)C (some centres unmarked) [Compound 035]
< 1000 nM,< 10 nM,–,COc1cc(NC(=O)C[C@@]2(C)C[C@H](c3cccc(Cl)c3)[C@@H](c3ccc(Cl)cc3)N([C@H](CS(=O)(=NC(=O)N3CCCC3)C(C)C)C(C)C)C2=O)ccc1C(=O)O (some centres unmarked) [Compound 051]
< 1000 nM,< 10 nM,–,CC(=O)N=[S@@](=O)(C[C@H](C(C)C)N1C(=O)[C@@](C)(CC(=O)O)C[C@H](c2cccc(Cl)c2)[C@H]1c1ccc(Cl)cc1)C(C)C [Compound 039]
< 1000 nM,< 10 nM,–,CC(C)[C@@H](CS(=O)(=NC(=O)N1CCCC1)C(C)C)N1C(=O)[C@@](C)(CC(=O)O)C[C@H](c2cccc(Cl)c2)[C@H]1c1ccc(Cl)cc1 (some centres unmarked) [Compound 047]
1000 to 10000 nM,> 100 nM,–,CC(C)[C@@H](CS(=N)(=O)C(C)C)N1C(=O)[C@@](C)(CC(=O)Nc2ccc(F)c(Br)c2)C[C@H](c2cccc(Cl)c2)[C@H]1c1ccc(Cl)cc1 (some centres unmarked) [Compound 017]
1000 to 10000 nM,> 100 nM,–,Cc1ccc(S(=N)(=O)NC(=O)C[C@@]2(C)C[C@H](c3cccc(Cl)c3)[C@@H](c3ccc(Cl)cc3)N([C@H](CS(=O)(=O)C(C)C)C(C)C)C2=O)cc1 (some centres unmarked) [Compound 029]

"IC50 ([1]; Homo sapiens, SJSA-1, 7 h)",IC50 (GST-hMDM2 (aa1-188)),IC50 [1],Structure (SMILES)
1000 to 10000 nM,10 to 100 nM,–,CC(C)[C@@H](CS(=O)(=O)C(C)C)N1C(=O)[C@@](C)(CC(=O)NS(=N)(=O)C2CC2)C[C@H](c2cccc(Cl)c2)[C@H]1c1ccc(Cl)cc1 (some centres unmarked) [Compound 025]
< 1000 nM,< 10 nM,–,COc1cc(NC(=O)C[C@@]2(C)C[C@H](c3cccc(Cl)c3)[C@@H](c3ccc(Cl)cc3)N([C@H](CS(=O)(=NC(=O)N3CCOCC3)C(C)C)C(C)C)C2=O)ccc1C(=O)O (some centres unmarked) [Compound 050]
1000 to 10000 nM,10 to 100 nM,–,CC(C)[C@@H](CS(=N)(=O)C(C)C)N1C(=O)[C@@](C)(CC(=O)NS(=O)(=O)C2(C)CC2)C[C@H](c2cccc(Cl)c2)[C@H]1c1ccc(Cl)cc1 (some centres unmarked) [Compound 019]
1000 to 10000 nM,> 100 nM,–,CC(C)[C@@H](CS(=N)(=O)C(C)C)N1C(=O)[C@@](C)(CC(=O)Nc2cccc(Br)c2)C[C@H](c2cccc(Cl)c2)[C@H]1c1ccc(Cl)cc1 (some centres unmarked) [Compound 012]
1000 to 10000 nM,< 10 nM,–,COc1cc(C(=O)O)ccc1NC(=O)C[C@@]1(C)C[C@H](c2cccc(Cl)c2)[C@@H](c2ccc(Cl)cc2)N([C@H](CS(=N)(=O)C(C)C)C(C)C)C1=O (some centres unmarked) [Compound 009]
< 1000 nM,< 10 nM,–,COc1cc(NC(=O)C[C@@]2(C)C[C@H](c3cccc(Cl)c3)[C@@H](c3ccc(Cl)cc3)N([C@H](CS(=N)(=O)C(C)C)C(C)C)C2=O)ccc1C(=O)O (some centres unmarked) [Compound 008]
< 1000 nM,< 10 nM,–,CC(C)[C@@H](CS(=O)(=NC(N)=O)C(C)C)N1C(=O)[C@@](C)(CC(=O)O)C[C@H](c2cccc(Cl)c2)[C@H]1c1ccc(Cl)cc1 (some centres unmarked) [Compound 034]
1000 to 10000 nM,10 to 100 nM,–,CC(C)[C@@H](CS(=N)(=O)C(C)C)N1C(=O)[C@@](C)(CC(=O)Nc2ccccc2)C[C@H](c2cccc(Cl)c2)[C@H]1c1ccc(Cl)cc1 (some centres unmarked) [Compound 015]
< 1000 nM,< 10 nM,–,CC(C)[C@@H](CS(=O)(=NC(=O)N1CCOCC1)C(C)C)N1C(=O)[C@@](C)(CC(=O)O)C[C@H](c2cccc(Cl)c2)[C@H]1c1ccc(Cl)cc1 (some centres unmarked) [Compound 046]
1000 to 10000 nM,10 to 100 nM,–,CC(C)[C@@H](CS(=N)(=O)C(C)C)N1C(=O)[C@@](C)(CC(=O)NS(=O)(=O)c2ccc(F)cc2)C[C@H](c2cccc(Cl)c2)[C@H]1c1ccc(Cl)cc1 (some centres unmarked) [Compound 022]
< 1000 nM,10 to 100 nM,–,C=CC(=O)N=[S@@](=O)(C[C@H](C(C)C)N1C(=O)[C@@](C)(CC(=O)O)C[C@H](c2cccc(Cl)c2)[C@H]1c1ccc(Cl)cc1)C(C)C [Compound 041]
< 1000 nM,< 10 nM,–,COc1cc(NC(=O)C[C@@]2(C)C[C@H](c3cccc(Cl)c3)[C@@H](c3ccc(Cl)cc3)N([C@H](CS(=O)(=NC(=O)N(C)C)C(C)C)C(C)C)C2=O)ccc1C(=O)O (some centres unmarked) [Compound 049]
1000 to 10000 nM,10 to 100 nM,–,CC(C)[C@@H](CS(=N)(=O)C(C)C)N1C(=O)[C@@](C)(CC(=O)N[C@H]2CC[C@H](O)CC2)C[C@H](c2cccc(Cl)c2)[C@H]1c1ccc(Cl)cc1 (some centres unmarked) [Compound 011]
< 1000 nM,< 10 nM,–,COc1cc(NC(=O)C[C@@]2(C)C[C@H](c3cccc(Cl)c3)[C@@H](c3ccc(Cl)cc3)N([C@H](CS(=O)(=NC(N)=O)C(C)C)C(C)C)C2=O)ccc1C(=O)O (some centres unmarked) [Compound 043]
1000 to 10000 nM,10 to 100 nM,–,CC(C)[C@@H](CS(=N)(=O)C(C)C)N1C(=O)[C@@](C)(CC(=O)NC23CCC(C(=O)O)(CC2)CC3)C[C@H](c2cccc(Cl)c2)[C@H]1c1ccc(Cl)cc1 (some centres unmarked) [Compound 010]
